Data taken from US20180133211A1, “METHODS AND MATERIALS FOR PROMOTING BONE FORMATION” (Mayo Foundation for Medical Education and Research, priority 2015, published 2018).

What was measured:
[1] = system: Mesenchymal stem cells; assay: RNA-Seq of mesenchymal stem cells treated with BMP2 and/or GSK126; assay type: cell-based, human; conditions: 2 μM GSK126 together with 50 ng/ml BMP2
Description: mRNASeq was performed on the following samples: 1) MSCs grown on plastic or titanium disks in osteogenic cocktail (one sample from each time-point, samples created by pooling biological triplicates), 2) RNA from d3 AMCs treated with vehicle or 2 μM GSK126 in osteogenic cocktail (three samples from each treatment group), 3) RNA from d3, d6, and d10 MC3T3 treated with vehicle or 5 μM GSK126 (one sample from each treatment group at each time-point, samples created by pooling biological triplicates), 4) RNA from three day old female WT or cKO (Prrx1-Ezh2) (one sample from each genotype, pooling of RNA from three (WT) and two (cKO)), and one sample of MSCs in adipogenic cocktail for six days. High throughput mRNA sequencing and bioinformatic analyses (mRNASeq) were performed as described elsewhere (Dudakovic et al., J. Cell Biochem., 115:1816-1828 (2014)).
In addition, osteogenic genes are synergistically activated by GSK126 and BMP2. Mesenchymal stem cells were treated with 50 ng/ml BMP2 and/or 2 μM GSK126. […] Thus, EZH2 inhibition enhances the osteogenic potential of cells treated with BMP2, a key osteogenic activator.

[2] = system: Runx2 protein in MC3T3-E1 cells; assay: Runx2 immunoblotting; assay type: cell-based, mouse; conditions: MC3T3-E1, 3 μM, after both 24 hours and 14 days
Description: Whole cell protein extracts were prepared using SDS sample buffer (2% SDS, 100 mM β-mercaptoethanol and 125 mM Tris-HCl, pH=6.8) and heated at 95° C. for 5 minutes. To obtain supernatant protein extracts, cell medium was collected, and proteins were precipitated with 50% trichloroacetic acid at 4° C. for 1 hour, concentrated by centrifugation, neutralized with PBS, and dissolved in SDS sample buffer.
For immunoblotting analysis, 15 μg of protein extracts were separated on 10% SDS poly-acryl amide gels, transferred to nitrocellulose membranes (Millipore), and blocked overnight with 10% blocking reagent (Roche) in TN buffer (50 mM Tris and 125 mM NaCl, pH=8.0). The following primary antibodies were used: rabbit, anti-Runx2 (sc-10758, Santa Cruz Biotechnologies, Santa Cruz, Calif.) and rabbit, anti-β-Actin (#4967, Cell Signaling, Danvers, Mass., USA). Washing was performed with TN buffer containing 0.01% Tween. Binding of the secondary antibody (anti-rabbit IgG/anti-mouse IgG horseradish peroxidase-coupled) (Roche) diluted 1:10,000 in 10% blocking solution followed by detection with the BM chemo-luminescence immunoblotting kit (Roche) was carried out as described by the supplier. Chemo-luminescence was measured with an image acquisition system (Vilber Lourmat, Marne-la-Vallée, France). Measurements are given as means of 3 immuno-blots, and representative blots are shown.

[3] = system: sham operated or ovariectomized (OVX) mice; assay: Quantitative backscattered electron imaging (qBEI) of bone mineralization, SFN in vivo; set-up: species or system mouse; conditions: two-way ANOVA
Description: Analysis of SFN on mice was performed using a protocol similar to that described elsewhere (Kong et al., Arthritis Rheum., 62:159-170 (2010)). In the experimental setting herein, eight week old sham operated or ovariectomized (OVX) C57B16/J female mice were purchased from Charles River laboratories. Mice were injected with 7.5 mM DL-SFN (200 μL of SFN at a concentration of 63.8 mg/mL/kg dissolved in ethanol and further diluted in PBS) intraperitoneally every other day for five weeks. Control mice received vehicle alone.
Un-decalcified distal femora from 13 weeks old mice, sham/Crt (n=5), sham/DL-SFN (n=5), OVX/ctrl (n=4) and OVX/DL-SFN (n=5), were fixed and dehydrated in alcohol, embedded in polymethylmethacrylate (PMMA), and prepared for backscattered electron imaging as previously described. qBEI is based on backscattering of electrons from the surface-layer (i.e., the initial ˜1.5 micron) of a bone section. The rate of these backscattered electrons is proportional to the weight concentration of mineral (hydroxyapatite), and thus of that of calcium in bone. Details of the method were described elsewhere (Roschger et al., Bone, 42:456-466 (2008)). A scanning electron microscope (DSM 962, Zeiss, Oberkochen, Germany) equipped with a four quadrant semiconductor backscattered electron detector was used. […]

Compound	expression of key osteogenic factors DLXS, SP7, IBSP [1]	Runx2 protein expression [2]	CaPeak and CaWidth of trabecular bone (qBEI) [3]
CC[C@H](C)n1cc(C)c2c(C(=O)NCc3c(C)cc(C)[nH]c3=O)cc(-c3ccc(N4CCNCC4)nc3)cc21 [GSK126, N-[(1,2-dihydro-4,6-dimethyl-2-oxo-3-pyridinyl)methyl]-3-methyl-1-[(1S)-1-methylpropyl]-6-[6-(1-piperazinyl)-3-pyridinyl]-1H-indole-4-carboxamide]	synergistically enhanced	–	–
C[S+]([O-])CCCCN=C=S (racemic) [DL-SFN]	–	significant increase	no effects
